Read-outs that look alike come from different tables or passages of the source. Positions of bridges follow the written chain, without caps; N, C: chain ends. Residues, ends and D or L forms follow the SMILES beside them.
Key:
[1] = tested on: A. veronii ACCC61732 in biofilm; assay type: cell-based; settings: 2 h
Procedure: The mid-log phase A. veronii ACCC61732 cells (1 × 10^8 CFU/mL) were inoculated into in the 96-well plates and cultured for 24 h at 37 °C. The plates were washed twice with PBS. […] PBS was used as the negative control. The plates were treated with ultrasound for 5 min and the viable bacteria were counted on the TSA plates.

A. veronii ACCC61732 [2] = assay: Resistance development, 30 serial passages; assay type: cell-based; settings: A. veronii ACCC61732, 30 passages (30 days)
Procedure: The development of bacterial resistance of peptides was performed by the MIC assays. […] GEN, CIP, and PMB were used as controls. […] The MIC values were measured as described above. The serial passaging was repeated for 30 days.

S. pullorum CVCC1789 = assay: microbe, parasite or virus in culture; assay type: cell-based
From the text: (§1) All experiments were repeated three times.

A. veronii X-1-06909 = assay: microbe, parasite or virus in culture; assay type: cell-based
From the text: as §1

[3] = tested on: Candida albicans CMCC98001; assay: microbe, parasite or virus in culture; assay type: cell-based
From the text: as §1

E. coli CVCC1515 = assay: microbe, parasite or virus in culture; assay type: cell-based
From the text: as §1

S. enteritidis CVCC3377 = assay: microbe, parasite or virus in culture; assay type: cell-based
From the text: as §1

E. coli CVCC25922 = assay: microbe, parasite or virus in culture; assay type: cell-based; settings: E. coli CVCC25922, broth dilution, 37 °C, 16–18 h, three experiments
From the text: as §1

Escherichia coli CVCC195 = assay: microbe, parasite or virus in culture; assay type: cell-based; settings: Escherichia coli CVCC195, broth dilution, 37 °C, 16–18 h, three experiments
From the text: as §1

S. pullorum CVCC1809 = assay: microbe, parasite or virus in culture; assay type: cell-based; settings: S. pullorum CVCC1809, broth dilution, 37 °C, 16–18 h, three experiments
From the text: as §1

[4] = tested on: Staphylococcus aureus ATCC43300; assay: microbe, parasite or virus in culture; assay type: cell-based
From the text: as §1

S. pullorum CVCC533 = assay: microbe, parasite or virus in culture; assay type: cell-based
From the text: as §1

A. veronii ACCC61732 [5] = assay: Time-killing curves; assay type: cell-based; settings: 2× MIC; 1 × 10^5 CFU/mL, colony counting, 0–24 h
Procedure: Time-killing curves were performed as previously described. […] The sample of 100 μL was taken from each flask at 0, 0.5, 1, 2, 4, 6, 8, 10, 20, and 24 h, respectively, and serially diluted for colony counting. PBS and CIP were used as the negative and positive control, respectively.

IL-6 = assay: Serum cytokine, ELISA, peritonitis model; assay type: in vivo; settings: 5 μmol/kg, 24 h after treatment, range over mice
Procedure: (§2) Sera and organs (livers, kidneys, spleens, and lungs) were collected from the mice at 24 h post-treatment. The organs were homogenized in sterile PBS to evaluate bacterial translocation by colony counting. The levels of cytokines (TNF-α, IL-1β, IL-6, and IL-10) in sera were detected using the ELISA kits.

IL-1β = assay: Serum cytokine, ELISA, peritonitis model; assay type: in vivo; settings: 5 μmol/kg, 24 h after treatment, range over mice
Procedure: as §2

IL-10 = assay: Serum cytokine, ELISA, peritonitis model; assay type: in vivo; settings: 5 μmol/kg, 24 h after treatment, range over mice
Procedure: as §2

TNF-α = assay: Serum cytokine, ELISA, peritonitis model; assay type: in vivo; settings: 5 μmol/kg, 24 h after treatment, range over mice
Procedure: as §2

trypsin = settings: pH 8
[6] = tested on: A. veronii ACCC61732 genomic DNA; assay: CD spectra of genomic DNA with peptides; assay type: binding; settings: mass ratios 2.5 and 10.0, 10 min, room temperature
Procedure: CD spectra were performed to examine the secondary structure of genomic DNA from A. veronii ACCC61732 after incubation with peptides. […] The mixtures were loaded into a cuvette of 1.0-mm path length and scanned from 190 to 330 nm at 25 °C using a Pistar π-180 CD spectrometer (Applied Photophysics Ltd., Surry, UK).

A. veronii ACCC61732 [7] = assay: Post-antibiotic effect (PAE); assay type: cell-based; settings: for PAE: 2 h exposure, 1000-fold dilution, 37 °C, triplicate
Procedure: The samples were taken from flasks for counting each hour until bacterial cultures became turbid. The untreated bacteria severed as controls. The PAE was calculated using the following equation: PAE = T − C, where T is the time (h) required for the CFU in the test culture to increase by 10-fold from the count immediately after the drug removal and C is the corresponding time (h) for the control. The experiment was performed in triplicate.

E. coli CVCCO157 = assay: MIC, microtiter broth dilution; assay type: cell-based; settings: 37 °C, 16–18 h, three experiments
From the text: as §1

[8] = tested on: A. veronii ACCC61732 biofilms; assay: Mouse model of catheter-associated biofilm infection, bacteria in catheter; assay type: in vivo, ICR mice; settings: 5 μmol/kg peptide or CIP 24 h after catheter implantation, catheters collected after seven days, six mice per group
Procedure: Briefly, the catheter was cut into 1 cm segments; each piece was sterilized with 70% ethanol and then dried by air. Bacterial biofilms were developed on the catheter by placing individual segments into tubes containing 1.0 mL of a cell suspension (1 × 10^8 CFU/mL) in TSB. After incubation for 24 h at 37 °C, colonized catheters were recovered aseptically and rinsed with PBS to remove unbound bacteria. ICR female mice (20 ± 5 g) were anesthetized with isoflurane; the flanks were shaved and the skin was cleansed with alcohol. […] The incision was then covered with intact skin and closed with surgical suture line and the skin was disinfected. […] The untreated mice were used as the negative control and the mice with sterile catheter were used as the blank control. The mice were anesthetized and sacrificed after seven days. The catheters in the back of the mice were collected and thoroughly shaken in sterile PBS.

Salmonella = settings: range over the strains of Table 2

## CC(C)[C@H](N)C(=O)N[C@@H](Cc1ccccc1)C(=O)N[C@@H](C)C(=O)N[C@@H](Cc1c[nH]c2ccccc12)C(=O)N[C@@H](CC(N)=O)C(=O)N[C@H](C(=O)N[C@H]1CSSC[C@@H](C(=O)N[C@@H](Cc2c[nH]cn2)C(=O)N[C@@H](CCCNC(=N)N)C(=O)N[C@@H](CCCNC(=N)N)C(=O)N[C@@H](C)C(=O)N[C@@H](CC(N)=O)C(N)=O)NC(=O)[C@H](C(C)C)NC(=O)[C@H](CCCNC(=N)N)NC(=O)[C@H](C(C)C)NC(=O)[C@H](C(C)C)NC(=O)[C@H](CC(N)=O)NC(=O)[C@H](CCCNC(=N)N)NC(=O)[C@H](Cc2ccc(O)cc2)NC(=O)[C@H](C(C)C)NC1=O)C(C)C [V112N6NH2] (H-VFAWNVCVYRNVVRVCHRRAN-NH2; disulfide 7-16 (inferred))
[1]; 8
  bacteria in biofilm killed: 46.21%
[1]; 16
  bacteria in biofilm killed: 52.04%
A. veronii ACCC61732 [2]
  increase of MIC after 30 serial passages: one-fold
S. pullorum CVCC1789; CVCC1789, read-out: MIC
  MIC: 6.25 µM
S. pullorum CVCC1789; S. pullorum CVCC1789, broth dilution, 37 °C, 16–18 h, three experiments
  MIC: 16 µg/mL
A. veronii X-1-06909; A. veronii X-1-06909, broth dilution, 37 °C, 16–18 h, three experiments
  MIC: 32 µg/mL
A. veronii X-1-06909; read-out: MIC
  MIC: 12.51 µM
[3]; CMCC98001, read-out: MIC
  MIC: >50.02 µM
[3]; Candida albicans CMCC98001, broth dilution, 37 °C, 16–18 h, three experiments
  MIC: >128 µg/mL
E. coli CVCC1515; CVCC1515, read-out: MIC
  MIC: 1.56 µM
E. coli CVCC1515; E. coli CVCC1515, broth dilution, 37 °C, 16–18 h, three experiments
  MIC: 4 µg/mL
S. enteritidis CVCC3377; CVCC3377, read-out: MIC
  MIC: 0.78 µM
S. enteritidis CVCC3377; S. enteritidis CVCC3377, broth dilution, 37 °C, 16–18 h, three experiments
  MIC: 2 µg/mL
E. coli CVCC25922
  MIC: 8 µg/mL
E. coli CVCC25922; read-out: MIC
  MIC: 3.13 µM
Escherichia coli CVCC195
  MIC: 8 µg/mL
Escherichia coli CVCC195; read-out: MIC
  MIC: 3.13 µM
S. pullorum CVCC1809
  MIC: 8 µg/mL
S. pullorum CVCC1809; read-out: MIC
  MIC: 3.13 µM
[4]; ATCC43300, read-out: MIC
  MIC: 12.5 µM
[4]; Staphylococcus aureus ATCC43300, broth dilution, 37 °C, 16–18 h, three experiments
  MIC: 32 µg/mL
S. pullorum CVCC533; CVCC533, read-out: MIC
  MIC: 6.25 µM
S. pullorum CVCC533; S. pullorum CVCC533, broth dilution, 37 °C, 16–18 h, three experiments
  MIC: 16 µg/mL
A. veronii ACCC61732 [5]
  time to completely kill A. veronii ACCC61732: unable completely kill
IL-6
  serum level of IL-6: 133.08 to 150.00 pg/mL
IL-1β
  serum level of IL-1β: 16.41 to 24.86 pg/mL
IL-10
  serum level of IL-10: 16.48 to 19.60 pg/mL
TNF-α
  serum level of TNF-α: 52.05 to 59.01 pg/mL
trypsin
  MIC after trypsin treatment: lost their activity
[6]
  effect on CD spectrum of genomic DNA: do not affect the double helix of genomic DNA
A. veronii ACCC61732 [7]; 1× MIC
  PAE: 0.74 ± 0.02 h
A. veronii ACCC61732 [7]; 1× to 4× MIC
  PAEs, range over 1×–4× MIC: 0.74 to 2.15 h
A. veronii ACCC61732 [7]; 2× MIC
  PAE: 1.48 ± 0.05 h
A. veronii ACCC61732 [7]; 4× MIC
  PAE: 2.15 ± 0.13 h
E. coli CVCCO157
  MIC: 8 µg/mL
E. coli CVCCO157; read-out: MIC
  MIC: 3.13 µM
[8]
  decrease of bacterial cells in the catheter: 55.29%
Salmonella
  MIC values against Salmonella: 0.78 to 6.25 µM
